From ChEMBL document CHEMBL1201862, “PubChem BioAssay data set” (2004)
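Growth conditions: 96-well plates. Treatment: test compound, 48 hours, 5 concentrations. Analysis: linear interpolation between bracketing concentrations; unreached endpoints set to highest concentration. The concentration for 50% growth inhibition is given as GI50.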 The source made the active and inactive calls. Cut-off read from the data, not from the text of the source: active = GI50 up to about 1.1 µM and inactive = higher.

Assays:
Assay in all cases: NCI-60 cell line screen, 48 h
[1] = system: HCC 2998
[2] = system: HCT-116
[3] = system: 786-0
[4] = system: UACC-62
[5] = system: HT-29
[6] = system: SNB-75
[7] = system: LOX IMVI
[8] = system: NCI-H522
[9] = system: SK-MEL-5
[10] = system: KM12
[11] = system: SK-OV-3
[12] = system: CAKI-1
[13] = system: TK-10
[14] = system: UACC-257
[15] = system: SF-539
[16] = system: EKVX
[17] = system: CCRF-CEM
[18] = system: SNB-19
[19] = system: MCF7

Measured: GI50

Cc1ccc(C(=O)O/N=C2/CCC/C2=C\c2ccccc2)cc1
inactive: [1] > 100 µM | [2] > 100 µM | [3] > 100 µM | [4] > 100 µM | [5] > 100 µM | [6] 69.3 µM | [7] > 100 µM | [8] > 100 µM | [9] > 100 µM | [10] > 100 µM | [11] > 100 µM | [12] > 100 µM | [13] > 100 µM | [14] > 100 µM | [15] > 100 µM | [16] > 100 µM | [17] > 100 µM

C#CCN(N=O)C(=O)NCCCC(NC(C)=O)C(=O)NCc1ccccc1 (stereo not given)
inactive: [1] > 100 µM | [2] 73.6 µM | [3] > 100 µM | [4] 81.7 µM | [5] > 100 µM | [6] 96.8 µM | [7] 82.2 µM | [8] 29.9 µM | [9] > 100 µM | [10] > 100 µM | [18] > 100 µM | [11] > 100 µM | [12] 54.6 µM | [13] > 100 µM | [14] > 100 µM | [15] 96.2 µM | [16] > 100 µM | [17] 11.3 µM

O=C1C=C(Br)C(=O)C(Br)=C1
inactive: [1] 74 µM | [2] > 84.9 µM | [3] > 100 µM | [4] > 100 µM | [5] > 100 µM | [6] > 100 µM | [7] > 31.6 µM | [8] 67.5 µM | [9] > 100 µM | [10] > 100 µM | [18] > 100 µM | [11] > 100 µM | [12] > 100 µM | [13] > 100 µM | [14] > 100 µM | [15] > 100 µM | [16] > 100 µM | [17] > 50.1 µM

CN1S(=O)(=O)N(C)P12(N=P(CP(=NP13(N(C)S(=O)(=O)N1C)N(C)S(=O)(=O)N3C)(c1ccccc1)c1ccccc1)(c1ccccc1)c1ccccc1)N(C)S(=O)(=O)N2C
inactive: [1] > 100 µM | [2] > 100 µM | [3] > 100 µM | [4] > 100 µM | [5] > 100 µM | [6] > 100 µM | [7] > 100 µM | [8] > 100 µM | [9] > 100 µM | [10] > 100 µM | [18] > 100 µM | [11] > 100 µM | [12] > 100 µM | [13] > 100 µM | [14] > 100 µM | [15] > 100 µM | [16] > 100 µM | [17] > 100 µM

COc1ccc(N2C(=O)C3c4[nH]c5ccccc5c4C4CCCCCCCCCCC4C3C2=O)cc1 (stereo not given)
inactive: [1] > 100 µM | [2] 5.25 µM | [3] 3.65 µM | [4] 18.5 µM | [5] 4.42 µM | [6] 12.7 µM | [7] 11.1 µM | [8] 18 µM | [9] 21.7 µM | [10] 7.03 µM | [18] 8.81 µM | [11] 28.8 µM | [12] 35.4 µM | [13] > 43.8 µM | [14] 31.6 µM | [15] 11 µM | [16] 23.4 µM | [17] 9.27 µM

CC1=NN(c2ccccc2)C(=O)/C1=C/c1ccc(O)cc1
inactive: [1] > 100 µM | [2] > 100 µM | [3] > 100 µM | [4] > 100 µM | [19] > 100 µM | [5] > 100 µM | [7] > 100 µM | [9] > 100 µM | [10] > 100 µM | [18] > 100 µM | [11] > 100 µM | [12] > 100 µM | [13] > 100 µM | [14] > 100 µM | [15] > 100 µM | [16] > 100 µM | [17] > 100 µM

OCC[N+]12CCCN1CCC2
inactive: [1] > 100 µM | [2] > 100 µM | [3] > 100 µM | [4] > 100 µM | [5] > 100 µM | [6] 61.7 µM | [7] > 100 µM | [8] > 100 µM | [9] > 100 µM | [10] > 100 µM | [18] > 100 µM | [11] > 100 µM | [12] > 100 µM | [13] > 100 µM | [14] > 100 µM | [15] > 100 µM | [16] > 100 µM | [17] > 100 µM

CCCCCCCC(=O)OC(CBr)COC(=O)C(C)(C)C (stereo not given)
inactive: [1] > 100 µM | [2] > 63.4 µM | [3] > 100 µM | [4] > 100 µM | [5] > 88.5 µM | [6] 12.1 µM | [7] > 63.2 µM | [8] > 100 µM | [9] > 100 µM | [10] > 100 µM | [18] > 100 µM | [11] > 100 µM | [12] > 100 µM | [13] > 100 µM | [14] > 100 µM | [15] > 10 µM | [16] > 100 µM | [17] 33 µM

c1coc(CNc2[nH]cnc3nncc2-3)c1
inactive: [1] > 100 µM | [2] > 100 µM | [3] > 100 µM | [4] > 100 µM | [5] > 100 µM | [6] 38.5 µM | [7] > 100 µM | [8] > 100 µM | [9] > 100 µM | [10] > 100 µM | [18] > 100 µM | [11] > 100 µM | [12] > 100 µM | [13] > 100 µM | [14] > 100 µM | [15] > 100 µM | [16] > 100 µM | [17] > 100 µM

CN(C)c1ccc(/C=c2\sc3nnc(-c4cccnc4)n3c2=O)cc1
inactive: [1] > 100 µM | [2] > 100 µM | [3] > 100 µM | [4] > 100 µM | [6] > 100 µM | [7] > 100 µM | [8] > 100 µM | [9] > 100 µM | [10] > 100 µM | [18] > 100 µM | [11] > 100 µM | [12] > 100 µM | [13] > 100 µM | [14] > 100 µM | [15] > 100 µM | [16] > 100 µM | [17] > 100 µM

CCOC(=O)c1[nH]c(COC(C)=O)c2c1CCCCCCCCCC2
inactive: [1] > 100 µM | [2] > 100 µM | [3] > 100 µM | [4] > 100 µM | [5] > 100 µM | [6] > 100 µM | [7] > 100 µM | [8] > 100 µM | [9] > 100 µM | [10] > 100 µM | [18] > 100 µM | [11] > 100 µM | [12] > 100 µM | [13] > 100 µM | [14] > 100 µM | [15] > 100 µM | [16] > 100 µM | [17] > 100 µM
